What all share (test): cells
The subject of one assay is MCF-7. The protocol:
(§1) HUVECs (human umbilical vein endothelial cells) were cultured in EGM™-2 BulletKit™ supplemented with SingleQuots™ (supplements: growth factors, cytokines, antibiotics; Lonza) and 10% FBS (catalog no. FFBS-500; Scientifix). Both HT-29 and MCF-7 cells were cultured in 10% FBS/DMEM (Dulbecco’s Modified Eagle Medium) with 1% penicillin–streptomycin (5000 U/mL; Life Technologies), whereas PC3 cells (prostate cancer cells) were cultured in 10% FBS/RPMI (Roswell Park Memorial Institute) 1640 with 1% penicillin–streptomycin (5000 U/mL; Life Technologies). All cells were maintained at 37 °C in 5% CO2.
(§2) Cell cytotoxicity and proliferation assays were performed using similar methods to those described by Chan et al.[45]. All cells were maintained using the media conditions described above, and passages two to ten were used for all cell lines. For all cell lines, 5.0 × 10^3 cells/well (100 μL) and 1.5 × 10^3 cells/well (100 μL) were used for cell cytotoxicity and cell proliferation assays, respectively. All peptides (10 μL, at final concentrations ranging from 0.05–100 μM) and drugs, which included cilengitide, octreotide and sunitinib (at final concentrations ranging from 0.00001–100 μM), were used in both assays. Triton X-100 (0.1% (v/v); 10 μL) was used as a positive control. Cells were treated with fresh media the day after plating, before the addition of peptides, followed by a subsequent 2-h and 48-h incubation for cell cytotoxicity and cell proliferation, respectively. After different incubation periods, 3-(4, 5-dimethylthiazolyl-2)-2,5-diphenyltetrazolium bromide (MTT) (10 μL; 5 mg/mL in PBS) was added, and cells were incubated for a further 4 h. The supernatant was then removed and 100 μL DMSO added to solubilize formazan salts. Experiments were performed in triplicate. Cell numbers were recorded at 600 nm. All data represent average mean ± SD.

The next assay deals with HUVEC. The protocol: as §1, §2
Another assay deals with HT-29. As for the experimental part:
as §1, §2

In the next assay the test system is PC3. As for the experimental part: as §1, §2
Where [1] appears, read: read-out: IC50 ± S.D., 48 hours, MCF-7, cell proliferation inhibition, MTT, 48-h incubation, 1.5 × 10^3 cells/well, triplicate, mean ± SD.
The mark [2] stands for this setting: read-out: IC50 ± S.D., 48 hours, HUVEC, cell proliferation inhibition, MTT, 48-h incubation, 1.5 × 10^3 cells/well, triplicate, mean ± SD.
Where [3] appears, read: read-out: IC50 ± S.D., 48 hours, HT-29, cell proliferation inhibition, MTT, 48-h incubation, 1.5 × 10^3 cells/well, triplicate, mean ± SD.
Setting [4] is: read-out: IC50 ± S.D., 48 hours, PC3, cell proliferation inhibition, MTT, 48-h incubation, 1.5 × 10^3 cells/well, triplicate, mean ± SD.

The text below walks through data of PMC5062114, “Dual-targeting anti-angiogenic cyclic peptides as potential drug leads for cancer therapy” (Scientific Reports, 2016).

Read-outs that look alike come from different tables or passages of the source. Bridge positions count the residues as written; N and C are the ends. Square brackets hold non-standard residues; d marks the D form. Ends that are not written are not given here. Peptide text beside a SMILES is read from it.

For `CC[C@H](C)[C@@H]1NC(=O)[C@@H]2CCCN2C(=O)[C@@H]2CCCN2C(=O)[C@H]([C@@H](C)CC)NC(=O)[C@H](CO)NC(=O)[C@H](CCCCN)NC(=O)[C@H]([C@@H](C)O)NC(=O)[C@@H]2CSSC[C@H](NC1=O)C(=O)N[C@@H](CCCNC(=N)N)C(=O)N[C@@H](Cc1ccccc1)C(=O)N[C@H](Cc1c[nH]c3ccccc13)C(=O)N[C@@H](CCCCN)C(=O)N[C@@H]([C@@H](C)O)C(=O)N[C@@H](Cc1c[nH]c3ccccc13)C(=O)N2` [SFTI-SST-02] (cyclo(CRF[dW]KTWCTKSIPPI); disulfide 1-8), the IC50 with MCF-7 (setting [1]) was 55.13 ± 0.07 µM; with HUVEC (setting [2]) it was above 100 µM; in the assay with HT-29 (setting [3]), 43.29 ± 0.04 µM; with PC3 (setting [4]), above 100 µM.

Consider `CC[C@H](C)[C@@H]1NC(=O)[C@@H]2CCCN2C(=O)[C@@H]2CCCN2C(=O)[C@H]([C@@H](C)CC)NC(=O)[C@H](CO)NC(=O)[C@H](CCCCN)NC(=O)[C@H]([C@@H](C)O)NC(=O)[C@@H]2CSSC[C@H](NC1=O)C(=O)N[C@@H](Cc1ccc(O)cc1)C(=O)N[C@@H](Cc1c[nH]cn1)C(=O)N[C@@H](CC(C)C)C(=O)N[C@@H](CC(N)=O)C(=O)N[C@@H](CCC(N)=O)C(=O)N1CCC[C@H]1C(=O)N[C@@H](Cc1ccccc1)C(=O)N2` [SFTI-PEDF] (cyclo(CTKSIPPICYHLNQPF); disulfide 1-9), for which the IC50 with MCF-7 (setting [1]) is above 100 µM; with HUVEC (setting [2]), 27.89 ± 0.11 µM; in the assay with HT-29 (setting [3]), above 100 µM; with PC3 (setting [4]), above 100 µM.

Take YHLNQPF [PEDF, reference compound]: the IC50 with MCF-7 (setting [1]) was above 100 µM; in the assay on HUVEC (setting [2]), 19.4 ± 0.08 µM; in the assay on HT-29 (setting [3]), above 100 µM; in the assay on PC3 (setting [4]), above 100 µM.

As for `CC[C@H](C)[C@@H]1NC(=O)[C@@H]2CSSC[C@@H]3NC(=O)CNC(=O)[C@H](CCCNC(=N)N)NC(=O)[C@H](CCCNC(=N)N)NC(=O)[C@H](CCCNC(=N)N)NC(=O)[C@H](CCCCN)NC(=O)[C@H](CCCNC(=N)N)NC(=O)[C@H](CCCNC(=N)N)NC(=O)CNC(=O)[C@@H]4CSSC[C@H](NC(=O)[C@H](CC(=O)O)NC(=O)[C@H](CO)NC(=O)[C@H](CC(=O)O)NC(=O)[C@H](CCCNC(=N)N)NC(=O)[C@H](CCCNC(=N)N)NC(=O)[C@H](CSSC[C@H](NC1=O)C(=O)N[C@@H](CCCNC(=N)N)C(=O)NCC(=O)N[C@@H](CC(N)=O)C(=O)NCC(=O)N[C@@H](Cc1ccc(O)cc1)C(=O)N4)NC(=O)[C@H](CCCCN)NC(=O)[C@H](CCCCN)NC(=O)[C@H](CC(C)C)NC(=O)[C@H]([C@@H](C)CC)NC(=O)[C@H](CCCCN)NC(=O)[C@@H]1CCCN1C3=O)C(=O)N1CCC[C@H]1C(=O)NCC(=O)N[C@@H](C)C(=O)N2` [MCo-polyR-L6] (cyclo(ACICRGNGYCGRRKRRRGCPKILKKCRRDSDCPG); disulfide 2-19, 4-26, 10-32), the IC50 is above 100 µM with MCF-7 (setting [1]), 34.95 ± 0.03 µM with HUVEC (setting [2]), 52.89 ± 0.11 µM with HT-29 (setting [3]) and above 100 µM in the assay with PC3 (setting [4]).

Consider `CC[C@H](C)[C@@H]1NC(=O)[C@@H]2CCCN2C(=O)[C@@H]2CCCN2C(=O)[C@H]([C@@H](C)CC)NC(=O)[C@H](CO)NC(=O)[C@H](CCCCN)NC(=O)[C@H]([C@@H](C)O)NC(=O)[C@@H]2CSSC[C@H](NC1=O)C(=O)N[C@@H](Cc1ccccc1)C(=O)N1CCC[C@H]1C(=O)N[C@@H](CC(=O)O)C(=O)NCC(=O)N[C@@H](CCCNC(=N)N)C(=O)N2` [SFTI-1, sunflower trypsin inhibitor-1, reference compound], for which the IC50 with MCF-7 (setting [1]), with HUVEC (setting [2]), with HT-29 (setting [3]) and in the assay on PC3 (setting [4]) was above 100 µM in each case.

For the molecule `CC[C@H](C)[C@@H]1NC(=O)[C@@H]2CCCN2C(=O)[C@@H]2CCCN2C(=O)[C@H]([C@@H](C)CC)NC(=O)[C@H](CO)NC(=O)[C@H](CCCCN)NC(=O)[C@H]([C@@H](C)O)NC(=O)[C@@H]2CSSC[C@H](NC1=O)C(=O)N[C@@H](CCCNC(=N)N)C(=O)N[C@@H](CCCNC(=N)N)C(=O)N[C@@H](CCCCN)C(=O)N[C@@H](CCCNC(=N)N)C(=O)N[C@@H](CCCNC(=N)N)C(=O)N[C@@H](CCCNC(=N)N)C(=O)N2` [SFTI-polyR-L2] (cyclo(CRRKRRRCTKSIPPI); disulfide 1-8), the IC50 in the assay with MCF-7 (setting [1]) is 41.84 ± 0.07 µM; in the assay with HUVEC (setting [2]) it was above 100 µM; in the assay with HT-29 (setting [3]) it was above 100 µM; with PC3 (setting [4]) it was above 100 µM.

`CC[C@H](C)[C@@H]1NC(=O)[C@@H]2CSSC[C@@H]3NC(=O)[C@H](C(C)C)NC(=O)CNC(=O)CNC(=O)[C@H](CC(=O)O)NC(=O)[C@H](CO)NC(=O)CNC(=O)[C@H](CO)NC(=O)CNC(=O)[C@@H]4CSSC[C@H](NC(=O)[C@H](CC(=O)O)NC(=O)[C@H](CO)NC(=O)[C@H](CC(=O)O)NC(=O)[C@H](CCCNC(=N)N)NC(=O)[C@H](CCCNC(=N)N)NC(=O)[C@H](CSSC[C@H](NC1=O)C(=O)N[C@@H](CCCNC(=N)N)C(=O)N[C@@H](Cc1ccc(O)cc1)C(=O)N[C@H](Cc1c[nH]c5ccccc15)C(=O)N[C@@H](CCCCN)C(=O)N[C@@H](C(C)C)C(=O)N4)NC(=O)CNC(=O)[C@H](CCCNC(=N)N)NC(=O)[C@H](CCCNC(=N)N)NC(=O)[C@H](CCCNC(=N)N)NC(=O)[C@H](CCCCN)NC(=O)[C@H](CCCNC(=N)N)NC(=O)[C@H](CCCNC(=N)N)NC(=O)CNC3=O)C(=O)N1CCC[C@H]1C(=O)NCC(=O)N[C@@H](C)C(=O)N2` [MCoAA-01] (cyclo(ACICRY[dW]KVCGSGSDGGVCGRRKRRRGCRRDSDCPG); disulfide 2-19, 4-28, 10-34): the IC50 with MCF-7 (setting [1]) was 45.01 ± 0.16 µM; in the assay with HUVEC (setting [2]), 10.83 ± 0.09 µM; with HT-29 (setting [3]), 40.12 ± 0.13 µM; in the assay on PC3 (setting [4]), above 100 µM.

In the case of `C[C@@H](O)[C@H](NC(=O)[C@H](CCCCN)NC(=O)[C@@H](Cc1c[nH]c2ccccc12)NC(=O)[C@H](Cc1ccccc1)NC(=O)[C@@H](N)CCCNC(=N)N)C(=O)N[C@@H](Cc1c[nH]c2ccccc12)C(=O)O` [SST-02, reference compound] (H-RF[dW]KTW-OH), the IC50 with MCF-7 (4 h), in the assay on HUVEC (4 h), in the assay with HT-29 (4 h) and in the assay with PC3 (4 h) was above 100 µM each time.

In the case of `CC[C@H](C)[C@@H]1NC(=O)[C@@H]2CCCN2C(=O)[C@@H]2CCCN2C(=O)[C@H]([C@@H](C)CC)NC(=O)[C@H](CO)NC(=O)[C@H](CCCCN)NC(=O)[C@H]([C@@H](C)O)NC(=O)[C@@H]2CSSC[C@H](NC1=O)C(=O)N[C@@H](Cc1ccc(O)cc1)C(=O)N[C@H](Cc1c[nH]c3ccccc13)C(=O)N[C@@H](CCCCN)C(=O)N[C@@H](C(C)C)C(=O)N2` [SFTI-SST-01] (cyclo(CTKSIPPICY[dW]KV); disulfide 1-9), the IC50 with MCF-7 (setting [1]) is 46.07 ± 0.05 µM; in the assay with HUVEC (setting [2]), 18.32 ± 0.05 µM; in the assay with HT-29 (setting [3]), 45.38 ± 0.03 µM; with PC3 (setting [4]) it was above 100 µM.

Consider `CC[C@H](C)[C@@H]1NC(=O)[C@@H]2CSSC[C@@H]3NC(=O)[C@H](C(C)C)NC(=O)CNC(=O)CNC(=O)[C@H](CC(=O)O)NC(=O)[C@H](CO)NC(=O)CNC(=O)[C@H](CO)NC(=O)CNC(=O)[C@@H]4CSSC[C@H](NC(=O)[C@H](CC(=O)O)NC(=O)[C@H](CO)NC(=O)[C@H](CC(=O)O)NC(=O)[C@H](CCCNC(=N)N)NC(=O)[C@H](CCCNC(=N)N)NC(=O)[C@H](CSSC[C@H](NC1=O)C(=O)N[C@@H](CCCNC(=N)N)C(=O)NCC(=O)N[C@@H](CC(N)=O)C(=O)NCC(=O)N[C@@H](Cc1ccc(O)cc1)C(=O)N4)NC(=O)[C@H](CCCNC(=N)N)NC(=O)[C@H](CCCNC(=N)N)NC(=O)[C@H](CCCNC(=N)N)NC(=O)[C@H](CCCCN)NC(=O)[C@H](CCCNC(=N)N)NC(=O)[C@H](CCCNC(=N)N)NC3=O)C(=O)N1CCC[C@H]1C(=O)NCC(=O)N[C@@H](C)C(=O)N2` [MCo-polyR-L1] (cyclo(ACICRGNGYCGSGSDGGVCRRKRRRCRRDSDCPG); disulfide 2-19, 4-26, 10-32), for which the half-maximal inhibitory concentration (IC50) in the assay on MCF-7 (setting [1]), with HUVEC (setting [2]), in the assay on HT-29 (setting [3]) and in the assay with PC3 (setting [4]) was above 100 µM throughout.

Consider `CC[C@H](C)[C@@H]1NC(=O)[C@H](CCCNC(=N)N)NC(=O)[C@H](CCCNC(=N)N)NC(=O)[C@H](CCCNC(=N)N)NC(=O)[C@H](CCCCN)NC(=O)[C@H](CCCNC(=N)N)NC(=O)[C@H](CCCNC(=N)N)NC(=O)[C@@H]2CSSC[C@H](NC1=O)C(=O)N[C@@H](Cc1ccccc1)C(=O)N1CCC[C@H]1C(=O)N[C@@H](CC(=O)O)C(=O)NCC(=O)N[C@@H](CCCNC(=N)N)C(=O)N2` [SFTI-polyR-L1] (cyclo(CFPDGRCRRKRRRI); disulfide 1-7), for which the half-inhibitory concentration (IC50) was 28.72 ± 0.15 µM with MCF-7 (setting [1]), above 100 µM in the assay on HUVEC (setting [2]), 82.27 ± 0.13 µM with HT-29 (setting [3]) and above 100 µM in the assay on PC3 (setting [4]).

Broadly, the IC50 is the concentration needed to halve the response being measured.
